From patent publication US20170035847A1, “COMPOSITIONS AND METHODS FOR TREATING INFLAMMATION-ASSOCIATED DISORDERS OF THE GASTROINTESTINAL TRACT” (TherapyX, Inc., priority 2015, published 2017)

Legend:
[1] = in vivo; details: rat, iv
Experimental: In addition to the studies discussed above a bioavailability and pharmacokinetic study of TGFβ and ATRA was conducted following a single oral administration of PIN®-encapsulated TGFβ and ATRA in male rats, when compared to intravenous administration.

[2] = test system: DSS-induced colitis in C57Black6 mice; test: Dextran sodium sulphate-induced colitis; assay type: in vivo, mouse
Text: Animals: Mice 6-8-weeks old (C57Black6 mice [males: n=6; females: n=6; 12 per group]) were purchased from Harlan Nossan, San Pietro al Natisone, Udine, Italy, and housed in a vivarium under pathogen-free conditions at the Department of Biomedical Sciences in the School of Medicine at the University of Catania [Catania, Italy]. The mice were kept under standard laboratory conditions with free access to food and water. They were allowed to adapt for 1 week before starting the study. The care and use of laboratory animals was in accordance with a University of Catania IACUC-approved animal use protocol.
Colitis was induced with 3% dextran sodium sulphate [50 kDa; Sigma-Aldrich] in drinking water for 4 days. The first treatment was given 24 h before induction of colitis [Day −1] and continued every other day for 6 days.
Disease score, SAA levels and histological analysis were performed as above.
To more broadly test the ability of oral TGFβ/ATRA-loaded microspheres to ameliorate IBD, a second model, the DSS-induced colitis model, was employed. Acute colitis was induced in C57Black6 mice [equal numbers of males and females, […]] with 3% DSS[50 kDa] in drinking water for 4 days. […] Mice were monitored daily for overall disease score and weight loss. At the end of 7 days, animals were sacrificed, sera taken and colons harvested, weighed, and measured on Day 7 [24 h after final treatment]. […] SAA levels, colon weight-to-length ratios, and histology scores determined. […] Mice were sacrificed 7 days after first treatment and levels of SAA determined [FIG. 10C]. […] The colons of sacrificed mice were also analyzed for colon weight-to-length ratio [FIG. 10D]. […] Next, ascending, transverse, and descending colon from naïve C57Black6 [no disease], untreated, TGFβ/ATRA-treated, and control [fed blank particles] mice were fixed in 10% formalin, embedded in paraffin, sectioned [5 μm] and stained with H & E. Five randomly-selected sections from each mouse were scored [Table 2] for disease severity. […]

CC1=C(/C=C/C(C)=C/C=C/C(C)=C/C(=O)O)C(C)(C)CCC1 [ATRA, all-trans retinoic acid]
AUC ([1]; male, 1.6 mg/kg): 3500 ng·h/mL | half-life ([1]; male, 1.6 mg/kg): 34 min

O=C(O)c1cc(/N=N/c2ccc(S(=O)(=O)Nc3ccccn3)cc2)ccc1O [sulphasalazine]
SAA levels, difference to no treatment ([2]; Day 7, TGFβ/ATRA 10 and 20 μg, sulphasalazine 50 mg/kg daily): significant | colon weight-to-length ratio ([2]; Day 7, control groups almost 40 mg/cm, p<0.01): 35 mg/cm | weight loss ([2]; TGFβ/ATRA 10 and 20 μg every other day, sulphasalazine 50 mg/kg daily oral for 7 days): neither sulphasalazine nor TGFβ/ATRA treatment was able to reduce weight loss

TGFβ: soluble unencapsulated protein, transforming growth factor β; human recombinant TGFβ (Peprotech)
Area under the curve [AUC] ([1]; 0.04 mg/kg): 10 ng·h/mL | t1/2 ([1]; 0.04 mg/kg): 5 min
